From PubChem BioAssay (NCI)
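Exposure lasted 48 hours, with cells grown in 96-well plates and compounds tested at five concentrations. Definition used: TGI = concentration required for complete inhibition of growth.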

How the values were obtained:
Assay in all cases: NCI-60 cell line screen, 48 h
DU-145 prostate = system: DU-145 prostate
EKVX NSCLC = system: EKVX NSCLC
HCC-2998 colon = system: HCC-2998 colon
HCT-116 colon = system: HCT-116 colon
HL-60(TB) leukemia = system: HL-60(TB) leukemia
HT29 colon = system: HT29 colon
IGROV1 ovarian = system: IGROV1 ovarian
LOX IMVI melanoma = system: LOX IMVI melanoma
M14 melanoma = system: M14 melanoma
MALME-3M melanoma = system: MALME-3M melanoma
MDA-MB-231 breast = system: MDA-MB-231 breast
MDA-N = system: MDA-N
NCI/ADR-RES ovarian = system: NCI/ADR-RES ovarian
OVCAR-4 ovarian = system: OVCAR-4 ovarian
OVCAR-8 ovarian = system: OVCAR-8 ovarian
RPMI-8226 leukemia = system: RPMI-8226 leukemia
SK-MEL-2 melanoma = system: SK-MEL-2 melanoma
SR leukemia = system: SR leukemia
UACC-257 melanoma = system: UACC-257 melanoma
UO-31 renal = system: UO-31 renal

SMILES	TGI (DU-145 prostate) [µM]	TGI (EKVX NSCLC) [µM]	TGI (HCC-2998 colon) [µM]	TGI (HCT-116 colon) [µM]	TGI (HL-60(TB) leukemia) [µM]	TGI (HT29 colon) [µM]	TGI (IGROV1 ovarian) [µM]	TGI (LOX IMVI melanoma) [µM]	TGI (M14 melanoma) [µM]	TGI (MALME-3M melanoma) [µM]	TGI (MDA-MB-231 breast) [µM]	TGI (MDA-N) [µM]	TGI (NCI/ADR-RES ovarian) [µM]	TGI (OVCAR-4 ovarian) [µM]	TGI (OVCAR-8 ovarian) [µM]	TGI (RPMI-8226 leukemia) [µM]	TGI (SK-MEL-2 melanoma) [µM]	TGI (SR leukemia) [µM]	TGI (UACC-257 melanoma) [µM]	TGI (UO-31 renal) [µM]
COC(=O)[C@@H](NC(=O)[C@H](N)Cc1ccc(N(CCCl)CCCl)cc1)C(C)C	59.1	> 90.8	26.5	44.1	> 51.8	> 100	45.1	37.9	49.5	6.19	57.7	> 68	40.8	36.7	27.8	34	> 100	> 38.6	25	33
COc1cccc(/C=C2\SC(=S)N(/C=C3\C(=O)Oc4ccccc4C3=O)C2=O)c1O	> 100	> 100	87	> 100	> 100	> 100	> 100	> 100	> 100	> 100	> 100	> 100	> 100	> 100	> 100	80.3	> 100	> 100	> 100	48.2
O=C(Sc1n[nH]c(=O)[nH]c1=O)c1cccc2nc3ccccc3nc12	36.2	> 100	> 100	> 100	> 100	61.9	> 100	> 100	> 100	24.8	> 100	28.6	> 100	> 100	> 100	> 100	> 100	> 100	39	
C=CCSC1=N/C(=C\c2ccc(OC)cc2)C(=O)N1CC=C	> 100	59.2	79.7	> 100	34.8	> 100	> 100	> 100	> 100	87.7	> 100	59.8	> 100	> 100	> 100	42	91.5	43.7	58.4	> 100
COC(=O)c1sc2c(c1C(=O)OC)C(=NC(C)(C)C)SC2=NC(C)(C)C	30.5	34.7	28.3	30.5	28.6	37.6	36.2	38.6	32.2	37.8	37.3	34	42.7	44	42.3	41.4	33.1	33.8	32.6	2.43
COc1ccc2c(C)cc(N/N=C/c3ccc(C)s3)nc2c1	23.9	32.2	19.6	> 46.4	> 56.2	16.7	37.9	11.1	23.2	> 69.6	29.1	> 62.7	73.5	> 63.9	51.5	> 35.7	37.9	31	> 52.9	35.4
CC(C)[C@@H]1CC[C@@H](C)C[C@H]1OC(=O)/C=C1\C(C(=O)O[C@@H]2C[C@H](C)CC[C@H]2C(C)C)[C@H]2C=C[C@@H]1O2 (stereo partly drawn)	> 100	> 100	> 100	> 100	76.1	> 100	> 100	> 100	> 100	> 100	> 100	> 100	> 100	> 100	> 100	> 100		> 100	> 100	> 100
COc1ccc(CCc2ccc3c(c2)OCO3)cc1	> 100	> 100	> 100	> 100	> 100	> 100	> 100	> 100	> 100	> 100	> 100	> 100	> 100	> 100	> 100	> 100	92.4	45.4	> 100	
O=C1C(c2c(O)[nH]c3ccc(Cl)cc23)=Nc2ccccc21	> 25.9	> 53.1	> 26.8	5.18	> 100	> 100	19.3	> 79.7	> 100	> 58.4	6.9	> 100	> 100	5.42	21.9	> 100	> 26.3	> 100	> 100	2.25
O=C(Cn1c(C(=O)/C=C/c2ccc(Cl)cc2)nc2ccccc21)c1ccc(Cl)cc1	56.1	64.5	32.4	26.2	29.1	42.5	71.7	36.5	43.6	52.6	52	61	63	50.7		49.7	39.5	22.9	68.2	43
C[C@@H](NC(=O)Cn1c(Cl)nc2ccccc21)c1ccccc1	> 100	> 100	> 100	> 100	> 100	> 100		> 100	> 100	> 100	> 100	> 100	> 100	> 100	> 100	> 100	> 100	> 100	> 100	> 100
O=C1N/C(=N\N=C\c2ccccc2)C2(CCCCC2)O1	> 100	> 100	> 100	> 100	> 100	> 100	> 100	> 100	> 100	> 100	> 100	> 100	> 100	> 100	> 100	> 100	> 100	76.4	> 100	> 100
Cc1cc(N(CCC#N)CCC#N)ccc1/C=C(\NC(=O)/C=C/c1ccccc1)C(=O)Nc1ccc(Cl)cc1	> 100	> 100	> 58.7	> 100	> 100	> 100	> 100	> 100	> 100	> 50.9	> 100	> 100	> 100	> 100	> 100	> 100	> 100	> 100	> 100	> 100
Cc1nc2c(O)c3c(c(O)c2nc1C)C1C=CC3CC1	> 100	24.6	> 59.2	17.3	2.66	55.9	17.9	9.95	29.4	26.1	10.1	7.37	18.5	6.22	20.9	15.4	33	> 90.8	18.2	24.8
N#Cc1c(N)nc(SCc2ccccc2)c(C#N)c1-c1ccc(O)cc1	27.2	26.3	> 55.6	25.1	32.8	23.1	29.9	43	29.2	30	28.5	27.5	45.7	30.4	30.7	29.8	35.5	34.7	> 52.4	3.9
CN1C(=O)[C@H](c2c[nH]c3ccccc23)[C@H](c2c[nH]c3ccccc23)C1=O	> 100	> 100	> 100	> 59.1	> 46.9	> 83.4	> 45.3	37.8	> 100	> 100	> 31.8	> 100	> 85.9	50.6	> 100	> 66.9	> 55.2	> 74.5	> 63.8	62.4
NNC(=O)c1cc([N+](=O)[O-])ccc1NC(=O)C12CC3CC(CC(C3)C1)C2	> 100	> 100	83.4	> 100	22.1	> 100	8.53	20.1	> 100	56.1	56.5	> 100	49.2	23	> 100	35.8		55.6	59.3	31.5
C[C@H](c1ccccc1)n1c(N)c(-c2nc3ccccc3s2)c2ccc([N+](=O)[O-])cc2c1=O	> 38.8	> 100	> 85.1	10.9	36.6	> 52.7	98.9	> 66.6	> 100	56.8	27.7	> 80.4	22	> 100	> 100	1.87	> 28.7	13	76.9	18.4
CC(=O)c1c2c(cc3c1CC1(Cc4cc5c(cc4C1)C(=O)CCC5)C3)CCCC2 (stereo not drawn)	> 100	> 87.2	97.9	> 47.1	4.17	> 32.7	> 30.8	> 53.5	> 100	> 100	55.1	12.9	> 100	> 100	> 80.6	13.2	7.76	5.53	15.4	> 90.6
CC(C)OC(=O)C1(C(C)C)CCc2ccc(C(=O)CCC(=O)O)cc21 (stereo not drawn)	> 100	> 100	> 100	> 100	> 100	> 100	> 100	> 100	> 100	> 100	> 100	> 100	> 100	> 100	> 100	> 100	> 100	> 100	> 100	> 100
O=C1C=C(NCC(c2ccccc2)c2ccccc2)C(=O)c2ncccc21	4.74	7.83	2.12	> 23.7	3.32	25.8	8.82	5.23	3.25	3.4	11.5	3.38	8.05	7.29	11.5	5.84	9.13	4.87	2.45	12.2
Nc1n[nH]c2c(C(=O)Nc3ccc(Cl)cc3)c(N)n(N)c(=O)c12	> 100	> 100	> 100	> 100	> 100	> 100	> 100	> 100	> 100	> 100	> 100	> 100	> 100	> 100	> 100	> 100	> 100	> 100	> 100	> 100
C=C1CCC2[C@](C)(CCC[C@]2(C)C(=O)O)[C@@H]1CCc1ccoc1 (stereo partly drawn)	> 100	> 100	> 100	88.4	71.2	55.7	84.8	38	> 100	> 100	> 100	> 100	98.2	> 100		> 100	85	70.4	83.5	> 100
